Patent US9957214B2, “Multifunctional radical quenchers” (ARIZONA BOARD OF REGENTS ON BEHALF OF ARIZONA STATE …, priority 2012, dated 2018)

What was measured:
[1] = Lipid peroxidation induced by AAPH peroxyl radicals in phospholipid liposomes (C11-BODIPY581/591 fluorescence); settings: 10 mM AAPH, phosphate buffer, 40° C.; compared with tocopherol
Method: FIG. 4. Effect of nitrogen-containing 3-alkyl-1,4-benzoquinone derivatives on lipid peroxidation induced by peroxyl radicals generated from thermal decomposition of AAPH in phospholipid liposomes in phosphate buffer at 40° C. […] Relative fluorescence units are normalized to 100% intensity.
Several methods for assaying lipid peroxidation in vitro have been developed (Kuypers et al. (1987) Biochim Biophys Acta. 25, 266-274; Pap et al. (1999) FEBS Lett. 453, 278-282; Drummen et al. (2002) Free RadicBiol Med. 33, 473-490). Almost all of these methods are based on inhibition of free radical-induced oxidation reactions. A widely used fluorescence assay for lipid peroxidation uses lipid soluble cis-parinaric acid as a probe. cis-parinaric acid loses its fluorescence (λexc/em: 320/432 nm) upon interaction with peroxyl radicals and retains its fluorescence in the presence of radical quenchers. cis-parinaric acid is, however, air sensitive, photolabile and absorbs light in the UV region of the spectrum (at ˜320 nm). […] C11-BODIPY^581/591 (Molecular Probes, Eugene, Oreg., USA) stock solution concentrations were determined by measuring the absorption of C11-BODIPY^581/591 at 582 nm using a molar extinction coefficient of 140,000 mol^−1 cm^−1 (R. P. Haugland, (1999) Handbook of Fluorescent Probes and Research Chemicals, Molecular Probes, Inc., Eugene, Oreg.). […]

FRDA lymphocytes = assay: Suppression of ROS production (DCFH-DA flow cytometry) in DEM-treated FRDA lymphocytes; assay type: cell-based; settings: FRDA lymphocytes or leukemic CEM cells depleted of glutathione with DEM; compared with natural product 8
Method: FIG. 2. Representative flow cytometric analysis of ROS production in FRDA lymphocytes. Following pretreatment with the indicated compounds (5 and 10 μM) for 16 h, the cells were treated with 5 mM diethyl maleate (DEM) for 80 min to deplete glutathione. The cells were washed in phosphate-buffered saline and suspended in phosphate-buffered saline containing 20 mM glucose. Cells were loaded with 10 μM dichlorodihydrofluorescein diacetate (DCFH-DA) for 20 min, and the green fluorescence (DCF) was measured by flow cytometry (C6 Accuri, BD Biosciences, San Jose, Calif.), using a 488 nm excitation laser and the FL1-H channel 530±15 nm emission filter. […] A total of 10,000 events was recorded for each sample and analyzed (C6 Accuri software, BD Biosciences). […] Data are expressed as the mean±SEM (n=3).
Intracellular ROS production was measured in FRDA lymphocyte cells (GM15850, Coriell Cell Repositories, Camden, N.J.) using the oxidant sensitive fluorescent probe 2,7-dichlorodihydrofluorescein diacetate (DCFH-DA) (Molecular Probes) as described previously (Khdour et al. (2011) Pharm. Res. 28, 2896-2909). […] The samples were analyzed immediately by flow cytometry (C6 Accuri, BD Biosciences, San Jose, Calif.), using a 488 nm excitation laser and the FL1-H channel 530±15 nm emission filter. The generation of ROS, mainly peroxides, was detected as a result of the oxidation of DCFH. […]

SMILES	Protection against lipid peroxidation in liposomes (in words) [1]	Suppression of ROS (in words) (FRDA lymphocytes)
CCCCCCCCCCCCCC1=C(OC)C(=O)C=C(NCCCC(=O)OCCCCCC)C1=O [Compound 18, Hexyl 4-(4-methoxy-3,6-dioxo-5-tridecylcyclohexa-1,4-dienylamino)butanoate]	significant protection against lipid peroxidation	–
COC1=C2CCCCCCCCCCCCCCCNC(=CC1=O)C2=O [Compound 40]	–	very effective in suppressing ROS
CCCCCCCCCCCCCC1=C(OC)C(=O)C=C(NCCCC(=O)OC(C)(C)C)C1=O [Compound 7, tert-butyl 4-(4-methoxy-3,6-dioxo-5-tridecylcyclohexa-1,4-dienylamino)butanoate]	–	very effective in suppressing ROS
